Values joined by “and” are separate entries in the source; they are usually repeats but may differ in a detail not shown here. Equal values may be shown once. Toxic doses and inconclusive results are not listed. Rule for the calls: active = survival T/C of 150% or more; inactive = T/C below 125% in these data.
System: BDF1 mice, P388 leukemia ip, median survival T/C
Assay: NCI In Vivo Anticancer Drug Screen. Data for tumor model P388 Leukemia (intraperitoneal) in B6D2F1 (BDF1) mice
Conditions: endpoint: median survival time, higher = longer survival
Outline: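 Compound-treated tumour-bearing mice were compared with vehicle-treated controls. Survival was recorded, and the value is the treated-group measurement divided by the control-group measurement (T/C).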

[1] = dose: 50.0 mg/kg/injection, schedule: Q01DX009 (ip), vehicle: saline with Tween-80
[2] = dose: 50.0 mg/kg/injection, schedule: Q01DX009 (ip), vehicle: saline
[3] = dose: 100.0 mg/kg/injection, schedule: Q01DX009 (ip), vehicle: saline
[4] = dose: 100.0 mg/kg/injection, schedule: Q04DX003 (ip), vehicle: saline
[5] = dose: 200.0 mg/kg/injection, schedule: Q04DX003 (ip), vehicle: saline
[6] = dose: 100.0 mg/kg/injection, schedule: Q01DX009 (ip), vehicle: Klucel (hydroxypropylcellulose) (HPC)
[7] = dose: 100.0 mg/kg/injection, schedule: Q04DX003 (ip), vehicle: Klucel (hydroxypropylcellulose) (HPC)
[8] = dose: 200.0 mg/kg/injection, schedule: Q01DX009 (ip), vehicle: Klucel (hydroxypropylcellulose) (HPC)
[9] = dose: 200.0 mg/kg/injection, schedule: Q04DX003 (ip), vehicle: Klucel (hydroxypropylcellulose) (HPC)

Measured: T/C

CCSc1ncnc2c1ncn2C1OC(CO)C(O)C1O (stereo unspecified)
inactive: [1] 95 % of control | dose: 100.0 mg/kg/injection, schedule: Q01DX009 (ip), vehicle: saline with Tween-80 117 % of control | dose: 200.0 mg/kg/injection, schedule: Q01DX009 (ip), vehicle: saline with Tween-80 91 % of control

Nc1ccc(CCCCc2ccc(Cl)cc2Cl)cc1
inactive: dose: 25.0 mg/kg/injection, schedule: Q01DX009 (ip), vehicle: saline 95 % of control | [2] 95 % of control | [3] 95 % of control | [4] 104 % of control | dose: 150.0 mg/kg/injection, schedule: Q01DX009 (ip), vehicle: saline 109 % of control | [5] 100 % of control

CCCC(=O)Nc1ccc(NS(C)(=O)=O)cc1OC
inactive: [6] 95 % of control | [7] 100 % of control | [8] 90 % of control | [9] 95 % of control | dose: 400.0 mg/kg/injection, schedule: Q01DX009 (ip), vehicle: Klucel (hydroxypropylcellulose) (HPC) 90 % of control

CC1=CCC2(C)C(=O)C1CC1=C2CC(C)(C)CC1=O (stereo unspecified)
inactive: [3] 100 % of control | dose: 400.0 mg/kg/injection, schedule: Q01DX009 (ip), vehicle: saline 100 % of control

ClC(Cl)(Cl)c1cccc(C(Cl)(Cl)Cl)c1
inactive: [7] 115 % of control | [9] 120 % of control | dose: 266.0 mg/kg/injection, schedule: Q04DX003 (ip), vehicle: Klucel (hydroxypropylcellulose) (HPC) 90 % of control

CC1(C#N)CCc2c(ccc3ccccc23)C1=O (stereo unspecified)
inactive: dose: 50.0 mg/kg/injection, schedule: Q04DX003 (ip), vehicle: other 91 % of control | dose: 100.0 mg/kg/injection, schedule: Q04DX003 (ip), vehicle: other 95 % of control | dose: 200.0 mg/kg/injection, schedule: Q04DX003 (ip), vehicle: other 100 % of control

C#CCSc1ncnc2nc[nH]c12
inactive: [4] 100 % of control | [5] 100 % of control

O=C(/C(=C/c1ccccc1)CBr)c1ccccc1
inactive: dose: 1.6 mg/kg/injection, schedule: Q01DX009 (ip), vehicle: Klucel (hydroxypropylcellulose) (HPC) 109 % of control | dose: 3.1 mg/kg/injection, schedule: Q01DX009 (ip), vehicle: Klucel (hydroxypropylcellulose) (HPC) 100 % of control | dose: 6.25 mg/kg/injection, schedule: Q01DX009 (ip), vehicle: Klucel (hydroxypropylcellulose) (HPC) 104 % of control | dose: 12.5 mg/kg/injection, schedule: Q01DX009 (ip), vehicle: Klucel (hydroxypropylcellulose) (HPC) 86 % of control | dose: 12.5 mg/kg/injection, schedule: Q04DX003 (ip), vehicle: Klucel (hydroxypropylcellulose) (HPC) 104 % of control | dose: 25.0 mg/kg/injection, schedule: Q01DX009 (ip), vehicle: Klucel (hydroxypropylcellulose) (HPC) 86 % of control | dose: 25.0 mg/kg/injection, schedule: Q04DX003 (ip), vehicle: Klucel (hydroxypropylcellulose) (HPC) 95 % of control | dose: 50.0 mg/kg/injection, schedule: Q04DX003 (ip), vehicle: Klucel (hydroxypropylcellulose) (HPC) 95 % of control

OC(CC1CCCCN1)c1ccccc1 (stereo unspecified)
inactive: dose: 12.5 mg/kg/injection, schedule: Q01DX009 (ip), vehicle: saline with Tween-80 99 % of control | dose: 25.0 mg/kg/injection, schedule: Q01DX009 (ip), vehicle: saline with Tween-80 99 % of control | [1] 94 % of control and 110 % of control

CCOC(=O)/C=C(\C)SC1=CC(=O)C=CC1=O
inactive: dose: 100.0 mg/kg/injection, schedule: Q01DX001 (ip), vehicle: saline with Tween-80 106 % of control | dose: 200.0 mg/kg/injection, schedule: Q01DX001 (ip), vehicle: saline with Tween-80 100 % of control

O=C1NCC(COc2ccc(Cl)cc2)O1 (stereo unspecified)
inactive: dose: 50.0 mg/kg/injection, schedule: Q01DX009 (ip), vehicle: Klucel (hydroxypropylcellulose) (HPC) 108 % of control | [6] 105 % of control | [8] 105 % of control

CN1c2c(nc(N)[nH]c2=O)NCC1CCNc1ccc(C(=O)NC(CCC(=O)O)C(=O)O)cc1 (stereo unspecified)
inactive: dose: 6.25 mg/kg/injection, schedule: Q01DX009 (ip), vehicle: other 100 % of control | dose: 12.5 mg/kg/injection, schedule: Q01DX009 (ip), vehicle: other 100 % of control | dose: 25.0 mg/kg/injection, schedule: Q01DX009 (ip), vehicle: other 109 % of control | dose: 50.0 mg/kg/injection, schedule: Q01DX009 (ip), vehicle: other 109 % of control | [2] 104 % of control | [3] 112 % of control | [4] 109 % of control | dose: 200.0 mg/kg/injection, schedule: Q01DX009 (ip), vehicle: other 118 % of control | dose: 200.0 mg/kg/injection, schedule: Q01DX009 (ip), vehicle: saline 122 % of control | [5] 109 % of control | dose: 400.0 mg/kg/injection, schedule: Q04DX003 (ip), vehicle: saline 90 % of control

Source: PubChem BioAssay AID328 (DTP/NCI, 2004)
